Laboratory results from patent US6436421B1, “Pesticide compositions” (priority 1997, dated 2002).
Like-named read-outs stand apart in the source and are kept apart here.

Key:
[1] = type: physicochemical
Experimental: One method to evaluate the efficacy of a pesticide adjuvant is to measure its affect on the ability of the pesticide composition to resist wash-off from a surface. One skilled in the art will recognize that a pesticide which remains on the surface of a plant will be expected to have increased efficacy.
A suspension of the pesticide formulation was prepared by adding a premix of water and surfactant, with and without the polymer additives, followed by vigorous shaking of the mixtures by hand. Pieces of Parafilm™M laboratory film, a very soft, flexible, and hydrophobic film, were taped to plastic petrie dishes. The suspensions were sprayed with an automated sprayer as the petrie dishes with attached film were moved at a standard rate below the sprayer. The spray residues were allowed to dry, and a second application of spray was applied. One set of films was exposed, at an inclination of 45 degrees, to approximately 25 mm of water applied by a spray bar (equipped with TX-4 cone-type spray nozzles) that moved back and forth over the samples for a period of about 1 hour. The exposed films were allowed to dry. Another set of films was not exposed to water.
Infra-red spectra of the films were obtained by an Attenuated Total Reflection (ATR) technique. The films were pressed against a Zinc Selenide crystal that had been cleaned previously with methanol. Spectra were recorded with a Spectratech Allied Systems Fourier Transform Infra-Red Spectrometer, and stored in a computer. Peaks associated with pesticide residue were identified by inspection and peak areas were calculated by computer (Pesticide Peak Area, “PA”). A corresponding area for a Parafilm™ peak as similar as possible in peak location and size (in the same spectrum) was calculated (Film Peak Area, “FA”). […] A measure of the pesticide on the surface “P” was derived from the following calculation:
A relative measure of the amount of pesticide remaining after the above exposure to water was then derived from the following calculation: [formula]
Although the intensity of spectral peaks recorded with the ATR technique are very dependent on details of contact with the film, by obtaining a ratio of the pesticide peak to the film peak in the same spectral recording, different spectra can be compared with details of contact being compensated for, since they will have similar effects on the intensity of the pesticide absorption and the film absorption. The intensity of the pesticide peak relative to the film peak will depend on the degree of coverage of the film by the pesticide. To maximize coverage, the spraying was conducted twice. Furthermore, a wetting agent (surfactant) was included in the premix to promote wetting of the film by the spray droplets. Since exposure to water can result in re-distribution of the pesticide as well as wash-off of the pesticide, the measure of the amount remaining is only relative.
In all cases, a measured amount of pesticide was mixed with 270 grams of deionized water and 30 grams of 0.5% Silwet L-77 surfactant. This premix was divided into 50 gram portions. One portion was sprayed without adding polymer. For mixes containing polymer, 66.6 milligrams powder polymer or 1.32 g of a 5% solids dilution of the emulsion polymer were added to the 50 grams of premix.
TX-2 nozzle 12 inches above laboratory film.
58 psi (delivers 150 cc/minute).
Laboratory film moves at 1 mile/hour.
Fan nozzle 14 inches above laboratory film.
29 psi (Spray 15 cc with two passes over laboratory film at a rate to give 25 gallons/acre).

[2] = system: grape downy mildew caused by Plasmopara viticola; experiment: Grape field test of disease control with mancozeb fungicide; type: in vivo
Experimental: (§1) For grapes, single plant plots with three replicates/treatment were treated at seven day intervals, with a total of seven applications. Treatments were water-based spray mixtures of mancozeb with or without polymer additives added to the water shortly before spraying. The mixtures were applied with a backpack sprayer using carbon dioxide pressure atomization (45 psi) with a boom having three D3 (Cone) nozzles, at a rate of 640 liters/hectare. The treatments included a control with no fungicide applied, a full rate of mancozeb without additive (2.8 kg active ingredient/hectare), and a half rate of mancozeb (1.4 kg active ingredient/hectare) with or without additives. The polymer additives were used at ⅓ kg. of additive solids/kg. of active ingredient. The mancozeb formulation was a wettable powder with 75% active ingredient.
(§2) Assessments of percent infection (of grape downy mildew caused by Plasmopara viticola) of foliage were made 7 days after treatment # 7 (7DAT#7). These assessments are tabulated below. Data were analyzed by Duncan's multiple range test, using P=0.05.
(§3) Three different solid redispersible powders were evaluated; Powders I and II from the previous example and powder V, an all acrylic copolymer (Drycryl™DP-2904 redispersible powder, a cement modifier of the Rohm and Haas Company). Three different emulsion polymers were evaluated for comparison; Emulsion IV from the previous example; Emulsion VI, a poly(vinylacetate) emulsion (Rovace™ 117 emulsion from the Rohm and Haas Company, used as a general purpose adhesive component); and Emulsion VII, an acrylic emulsion polymer (Rhoplex™ 2438 emulsion from the Rohm and Haas Company, a component of elastomeric wall coatings).
(§4) In several of the evaluations, a surfactant was added to the spray mixture. When used, the surfactant was a solid powder of 90% dioctyl sodium sulfosuccinate and 10% sodium benzoate (Aerosol® OTB surfactant from Cytec Company).

[3] = system: Cercospora arachidicola (Early Leaf Spot); experiment: Peanut field test of disease control with mancozeb fungicide; type: in vivo
Experimental: as §1, §2
Peanuts were evaluated the same as grapes except that the plots were 1 meter×5 meter (1 row), with 4 replicates per treatment, there were 9 applications, the boom had five D2 (C45) nozzles, the full rate of mancozeb was 1.6 kg active ingredient/hectare, the final assessment was 23 days after treatment #9 (23DAT#9), and the predominant disease at this time was Cercospora arachidicola (Early Leaf Spot).
as §3, §4

[4] = Half rate, Emulsion IV, no surfactant
[5] = Half rate, Emulsion VI, no surfactant
[6] = Half rate, Emulsion VI, with surfactant
[7] = Half rate, Emulsion VII, no surfactant
[8] = Half rate, Powder I, no surfactant
[9] = Half rate, Powder II, no surfactant
[10] = Half rate, Powder II, with surfactant
[11] = Half rate, Powder V, no surfactant

| Compound | % AI Retained After One Inch Spray-Bar Rain, M (mean) ([1]; No Polymer) [%] | % AI Retained After One Inch Spray-Bar Rain, M (mean) ([1]; with Emulsion IV) [%] | % AI Retained After One Inch Spray-Bar Rain, M (mean) ([1]; with Powder I) [%] | % AI Retained After One Inch Spray-Bar Rain, M (mean) ([1]; with Powder II) [%] | % AI Retained After One Inch Spray-Bar Rain, M (mean) ([1]; with Powder III) [%] | also measured |
| --- | --- | --- | --- | --- | --- | --- |
| dinitro-(1-methylheptyl) phenyl crotonate [dinocap] | 3 | 40 | 49 | 47 | 19 | – |
| CNC(=O)Oc1cccc2c1OC(C)(C)C2 [carbofuran] | 3 | 9 | 39 | 23 | 16 | – |
| CCC(=O)Nc1ccc(Cl)c(Cl)c1 [propanil] | 9 | 18 | 38 | 27 | 21 | – |
| CNC(=O)Oc1cccc2ccccc12 [carbaryl] | 25 | 40 | 31 | 32 | 27 | – |
| N#CC(CCc1ccc(Cl)cc1)(Cn1cncn1)c1ccccc1 (centres unmarked) [fenbuconazole] | 9 | 83 | 63 | 82 | 48 | – |
| [Cu+2].[OH-].[OH-] [copper hydroxide] | 20 | 11 | 22 | 80 | 21 | – |
| OC(c1ccc(Cl)cc1)(c1ccc(Cl)cc1)C(Cl)(Cl)Cl [dicofol] | 18 | 95 | 76 | 62 | 62 | – |
| CCOc1cc(Oc2ccc(C(F)(F)F)cc2Cl)ccc1[N+](=O)[O-] [oxyfluorfen] | 17 | 152 | 66 | 137 | 55 | – |
| CN(C)C(CSC(N)=O)CSC(N)=O [cartap] | 4 | 3 | 5 | 8 | 8 | – |
| manganese ethylenebisdithiocarbamate [maneb] | 16 | 103 | 76 | 108 | 86 | – |
| CCCCC(C#N)(Cn1cncn1)c1ccc(Cl)cc1 (centres unmarked) [myclobutanil] | 13 | 74 | 56 | 77 | 44 | – |
| N#Cc1c(Cl)c(Cl)c(Cl)c(C#N)c1Cl [chlorothalonil] | 2 | 12 | 16 | 54 | 4 | – |
| mancozeb | – | – | – | – | – | Infection on Grape 7DAT#7 ([2]; Full rate (2.8 kg active ingredient/hectare), no polymer additive, no surfactant): 41.7 cd percent; Infection on Grape 7DAT#7 ([2]; Half rate (1.4 kg active ingredient/hectare), no polymer additive, no surfactant): 63.3 b percent; Infection on Grape 7DAT#7 [2, 4]: 38.3 de percent; Infection on Grape 7DAT#7 [2, 5]: 43.3 cd percent; Infection on Grape 7DAT#7 [2, 6]: 31.7 fg percent; Infection on Grape 7DAT#7 [2, 7]: 41.7 cd percent; Infection on Grape 7DAT#7 [2, 8]: 46.7 c percent; Infection on Grape 7DAT#7 [2, 9]: 43.3 cd percent; Infection on Grape 7DAT#7 [2, 10]: 28.3 g percent; Infection on Grape 7DAT#7 [2, 11]: 46.7 c percent; Infection on Peanut 23DAT#9 ([3]; Full rate (1.6 kg active ingredient/hectare), no polymer additive, no surfactant): 27.5 cd percent; Infection on Peanut 23DAT#9 [3, 4]: 25.0 de percent; Infection on Peanut 23DAT#9 [3, 5]: 22.5 ef percent; Infection on Peanut 23DAT#9 [3, 6]: 13.8 h percent; Infection on Peanut 23DAT#9 [3, 7]: 21.3 f percent; Infection on Peanut 23DAT#9 [3, 8]: 23.8 ef percent; Infection on Peanut 23DAT#9 [3, 9]: 32.5 c percent; Infection on Peanut 23DAT#9 [3, 10]: 17.5 g percent; Infection on Peanut 23DAT#9 [3, 11]: 22.5 ef percent; Infection on Peanut 23DAT#9 ([3]; Half rate, no polymer additive, no surfactant): 41.3 b percent |
